In US20220218852A1, “NOVEL RADIOLABELLED CXCR4-TARGETING COMPOUNDS FOR DIAGNOSIS AND THERAPY” (PROVINCIAL HEALTH SERVICES AUTHORITY, priority 2019, published 2022):
Positions of bridges follow the written chain, without caps; N, C: chain ends. Non-standard residues stand in square brackets, D forms with d. Residues, ends and D or L forms follow the SMILES beside them. Groups on a side chain read outwards from the residue. *: point of attachment. DOTA = O=C(O)CN1CCN(CC(=O)O)CCN(CC(=O)*)CCN(CC(=O)O)CC1; 2Nal = N[C@@H](Cc1ccc2ccccc2c1)C(=O)O; Lys(iPr) = CC(C)NCCCC[C@H](N)C(=O)O

Assays:
GRANTA519 xenograft = test: Dosimetry, Human Extrapolated from Mouse Model, based on GRANTA519 xenograft mice; assay type: in vivo; conditions: Lu-177, GRANTA519 xenograft mice
Text: (§1) The multi-time-point organ uptake obtained from biodistribution data of ^177Lu-labeled analogs was decayed to their appropriate time-point, fitted to a mono-exponential or bi-exponential model (fit chosen based on R2 and residuals) in Python (version 3.7). The area under the curve was used to compute residence times which were multiplied by model organ mass for human (NURBS model) and mouse (25 g MOBY mouse phantom) for use in OLINDA/EXM software (Hermes Medical Solution; version 2.0) that calculated dosimetry for an average mouse (Stabin et al., J Nucl Med. 2005, 46:1023-1027; Keenan et al., J Nucl Med. 2010, 51:471-476) and extrapolated to an average human male (Segars et al., J Nucl Med. 2001, 42:7; Stabin et al., J Nucl Med. 2012, 53:1807-13).

Z138 xenograft = test: Dosimetry, Human Extrapolated from Mouse Model, based on Z138 xenograft mice; assay type: in vivo; conditions: Lu-177, Z138 xenograft mice
Text: as §1

## CC(C)NCCCC[C@@H]1NC(=O)[C@H](Cc2ccc(O)cc2)NC(=O)[C@H](Cc2ccccc2)NC(=O)CC[C@H](C(=O)N[C@@H](CCCCNC(C)C)C(=O)N[C@@H](CCCCNC(=O)[C@H](CCC(=O)O)NC(=O)[C@H](CCC(=O)O)NC(=O)[C@H](CCC(=O)O)NC(=O)CN2CCN(CC(=O)O)CCN(CC(=O)O)CCN(CC(=O)O)CC2)C(N)=O)NC(=O)CNC(=O)[C@H](Cc2ccc3ccccc3c2)NC(=O)[C@@H](CCCNC(=N)N)NC1=O [[^177Lu]Lu-BL02, metal not drawn] (FY[Lys(iPr)][dR][2Nal]G[dE][Lys(iPr)]K([Glu-Glu-Glu-DOTA])-NH2; lactam N-7)
GRANTA519 xenograft; Adrenals
  Absorbed Dose, Adrenals: 0.00757 mGy/MBq
GRANTA519 xenograft; Brain
  Absorbed Dose, Brain: 7.33e−05 mGy/MBq
GRANTA519 xenograft; Esophagus
  Absorbed Dose, Esophagus: 0.00043 mGy/MBq
GRANTA519 xenograft; Eyes
  Absorbed Dose, Eyes: 0.000245 mGy/MBq
GRANTA519 xenograft; Gallbladder Wall
  Absorbed Dose, Gallbladder Wall: 0.000863 mGy/MBq
GRANTA519 xenograft; Heart
  Absorbed Dose, Heart: 0.00148 mGy/MBq
GRANTA519 xenograft; Kidneys
  Absorbed Dose, Kidneys: 0.0311 mGy/MBq
GRANTA519 xenograft; Left colon
  Absorbed Dose, Left colon: 0.00141 mGy/MBq
GRANTA519 xenograft; Liver
  Absorbed Dose, Liver: 0.0185 mGy/MBq
GRANTA519 xenograft; Lungs
  Absorbed Dose, Lungs: 0.00333 mGy/MBq
GRANTA519 xenograft; Pancreas
  Absorbed Dose, Pancreas: 0.000976 mGy/MBq
GRANTA519 xenograft; Prostate
  Absorbed Dose, Prostate: 0.000284 mGy/MBq
GRANTA519 xenograft; Rectum
  Absorbed Dose, Rectum: 0.000761 mGy/MBq
GRANTA519 xenograft; Red Marrow
  Absorbed Dose, Red Marrow: 0.000343 mGy/MBq
GRANTA519 xenograft; Remainder of the Body
  Absorbed Dose, Remainder of the Body: 0.000952 mGy/MBq
GRANTA519 xenograft; Right colon
  Absorbed Dose, Right colon: 0.00095 mGy/MBq
GRANTA519 xenograft; Salivary Glands
  Absorbed Dose, Salivary Glands: 0.000254 mGy/MBq
GRANTA519 xenograft; Skeleton
  Absorbed Dose, Skeleton: 0.000444 mGy/MBq
GRANTA519 xenograft; Small Intestine
  Absorbed Dose, Small Intestine: 0.00131 mGy/MBq
GRANTA519 xenograft; Spleen
  Absorbed Dose, Spleen: 0.00859 mGy/MBq
GRANTA519 xenograft; Stomach Wall
  Absorbed Dose, Stomach Wall: 0.000464 mGy/MBq
GRANTA519 xenograft; Testes
  Absorbed Dose, Testes: 0.00245 mGy/MBq
GRANTA519 xenograft; Thymus
  Absorbed Dose, Thymus: 0.000336 mGy/MBq
GRANTA519 xenograft; Thyroid
  Absorbed Dose, Thyroid: 0.00029 mGy/MBq
GRANTA519 xenograft; Urin Blad
  Absorbed Dose, Urin Blad: 0.000269 mGy/MBq
Z138 xenograft; Adrenals
  Absorbed Dose, Adrenals: 0.00413 mGy/MBq
Z138 xenograft; Brain
  Absorbed Dose, Brain: 4.5e−05 mGy/MBq
Z138 xenograft; Esophagus
  Absorbed Dose, Esophagus: 0.000564 mGy/MBq
Z138 xenograft; Eyes
  Absorbed Dose, Eyes: 0.000296 mGy/MBq
Z138 xenograft; Gallbladder Wall
  Absorbed Dose, Gallbladder Wall: 0.000923 mGy/MBq
Z138 xenograft; Heart
  Absorbed Dose, Heart: 0.00148 mGy/MBq
Z138 xenograft; Kidneys
  Absorbed Dose, Kidneys: 0.0332 mGy/MBq
Z138 xenograft; Left colon
  Absorbed Dose, Left colon: 0.000755 mGy/MBq
Z138 xenograft; Liver
  Absorbed Dose, Liver: 0.0183 mGy/MBq
Z138 xenograft; Lungs
  Absorbed Dose, Lungs: 0.0126 mGy/MBq
Z138 xenograft; Pancreas
  Absorbed Dose, Pancreas: 0.00105 mGy/MBq
Z138 xenograft; Prostate
  Absorbed Dose, Prostate: 0.000336 mGy/MBq
Z138 xenograft; Rectum
  Absorbed Dose, Rectum: 0.000473 mGy/MBq
Z138 xenograft; Red Marrow
  Absorbed Dose, Red Marrow: 0.000377 mGy/MBq
Z138 xenograft; Remainder of the Body
  Absorbed Dose, Remainder of the Body: 0.00117 mGy/MBq
Z138 xenograft; Right colon
  Absorbed Dose, Right colon: 0.000642 mGy/MBq
Z138 xenograft; Salivary Glands
  Absorbed Dose, Salivary Glands: 0.00031 mGy/MBq
Z138 xenograft; Skeleton
  Absorbed Dose, Skeleton: 0.000457 mGy/MBq
Z138 xenograft; Small Intestine
  Absorbed Dose, Small Intestine: 0.000691 mGy/MBq
Z138 xenograft; Spleen
  Absorbed Dose, Spleen: 0.0193 mGy/MBq
Z138 xenograft; Stomach Wall
  Absorbed Dose, Stomach Wall: 0.000883 mGy/MBq
Z138 xenograft; Testes
  Absorbed Dose, Testes: 0.00168 mGy/MBq
Z138 xenograft; Thymus
  Absorbed Dose, Thymus: 0.000454 mGy/MBq
Z138 xenograft; Thyroid
  Absorbed Dose, Thyroid: 0.000396 mGy/MBq
Z138 xenograft; Urin Blad
  Absorbed Dose, Urin Blad: 0.00032 mGy/MBq
